Laboratory results from publication PMC11224357, “Green, facile synthesis and evaluation of unsymmetrical carbamide derivatives as antimicrobial and anticancer agents with mechanistic insights” (Scientific Reports, 2024).
In brackets after ≈: the same amount, converted by molar mass. Like-named read-outs stand apart in the source and are kept apart here.

How the values were obtained:
[1] = test system: HCT-116 (human colon cancer); assay: MTT cytotoxicity assay; type: cell-based; settings: for IC50: HCT-116, MTT
Description: (§1) The MTT 3-(4,5-dimethylthiazol-2-yl)-2,5-diphenyl-tetrazolium bromide (Bio Basic Canada Inc. Toronto, Canada) assay was used to assess cell viability. The procedures were carried out in a biosafety class II sterile laminar air flow cabinet (Baker, SG403INT; Sanford, ME, USA). […] Cells were seeded at a density of (10^4 cells/well) into 96-well micro titer polypropylene plates and left to adhere for 24 h. The media was aspirated and the test chemicals were given to the cells in a single dose of 100 µM in DMSO. After 48 h of incubation, 40 µL of MTT salt ([…]) was applied to each well. […] Instead of the tested substances, the medium was applied to the untreated cells (negative control). […] The testing substance was dissolved in dimethylsulfoxide (DMSO), and its final concentration in the cells was less than 0.2%. The solvent concentration was the same for all medications and between the control and drug treatments at the same dilution.

Candida albicans [2] = assay: Agar well diffusion; type: cell-based; settings: read-out: Inhibition Zone
Excerpt: (§2) The antimicrobial efficiency of the synthesized unsymmetrical carbamide derivatives was screened using standard clinical pathogens derived from Department of Microbiology and Immunology, Faculty of Medicine (Boys), Al-Azhar University. The tested microbial pathogens used in this study were as follows, two Gram-positive bacteria (Bacillus subtilis, Staphylococcus aureus), two Gram-negative bacteria (Pseudomonas aerginousea, klebsiella pneumoniae) and two fungi (Candida albicans, Aspergillus fumgitus). Before each antimicrobial examination, pre-activation of each microbial pathogen was implemented using specific growth conditions. For bacterial ones, preinoculum was prepared using Nuitrent broth medium (Codalab, Spain) at 37 °C for 24 h. while the fungal pathogens were activated using Potato Dextrose broth (Codalab, Spain) at 28 °C for 48 h. Consequently, each tested pathogen justified its inoculum size based on Colony Forming Units (CFU) to be closed to […] during all antimicrobial tests.

HCT-116 cells [3] = assay: Annexin V-FITC/PI necrosis cell apoptosis assay; type: cell-based, human; settings: % of population
Description: (§3) The levels of necrosis and apoptosis in cells were determined by CytoFLEX Flow Cytometer. A total of 1 × 10^6 cells were washed in 1 × DPBS, and then were centrifuged at 500 × ϲ for 5 min. 1 μL of annexin V-FITC solution and 5 μL of dissolved PI were added to 100 μL of the cell suspensions that kept on ice and were incubated for 15 min in the dark. Cells were then analyzed by the CytoFLEX Flow Cytometer (Beckman Coulter Life Sciences, USA) and the percentage of apoptotic cells was determined using CytExpert Software.

MCF-7 cells = assay: Annexin V-FITC/PI necrosis cell apoptosis assay; type: cell-based, human; settings: % of population
Description: as §3

MTT cytotoxicity assay = type: cell-based, human; settings: human, BJ-1 normal cells
Description: as §1

Bacillus subtilis [4] = assay: Agar well diffusion; type: cell-based; settings: read-out: Inhibition Zone
Excerpt: as §2, with “For bacterial ones, preinoculum was prepared using Nuitrent broth medium (Codalab, Spain) at 37 °C for 24 h. while the fungal pathogens were activated using Potato Dextrose broth (Codalab, Spain) at 28 °C for 48 h.” left out

Pseudomonas aeruginosa [5] = assay: Agar well diffusion; type: cell-based; settings: read-out: Inhibition Zone
Excerpt: as §2, with “For bacterial ones, preinoculum was prepared using Nuitrent broth medium (Codalab, Spain) at 37 °C for 24 h. while the fungal pathogens were activated using Potato Dextrose broth (Codalab, Spain) at 28 °C for 48 h.” left out

Klebsiella pneumonia [6] = assay: Agar well diffusion; type: cell-based; settings: Klebsiella pneumoniae, read-out: Inhibition Zone
Excerpt: as §2, with “For bacterial ones, preinoculum was prepared using Nuitrent broth medium (Codalab, Spain) at 37 °C for 24 h. while the fungal pathogens were activated using Potato Dextrose broth (Codalab, Spain) at 28 °C for 48 h.” left out

Staphylococcus aureus [7] = assay: Agar well diffusion; type: cell-based
Excerpt: as §2, with “For bacterial ones, preinoculum was prepared using Nuitrent broth medium (Codalab, Spain) at 37 °C for 24 h. while the fungal pathogens were activated using Potato Dextrose broth (Codalab, Spain) at 28 °C for 48 h.” left out

[8] = test system: MCF-7 (human breast cancer); assay: MTT cytotoxicity assay; type: cell-based; settings: for IC50: MTT
Description: as §1, with “The media was aspirated and the test chemicals were given to the cells in a single dose of 100 µM in DMSO.” left out

Candida albicans [9] = assay: MIC by microdilution (CLSI); type: cell-based; settings: read-out: Minimum inhibitory concentration (MIC)
Description: (§4) For this purpose, serial dilution of the potent compounds was carried out to obtain the desired concentrations (i.e. 10–400 µg/mL). In brief, a defined weight for each selected compound was dissolved in dimethylsulphoxide (DMSO) and used as a stock solution[29]. The determination of the MIC value for each targeted compound was known as the lowest concentration of each sample that yielded a minimum number of colony-forming units (CFU) compared to the untreated samples[28].

Aspergillus fumagitus [10] = assay: MIC by microdilution (CLSI); type: cell-based; settings: read-out: Minimum inhibitory concentration (MIC)
Description: as §4

Bacillus subtilis [11] = assay: MIC by microdilution (CLSI); type: cell-based; settings: read-out: Minimum inhibitory concentration (MIC)
Description: (§5) In brief, a defined weight for each selected compound was dissolved in dimethylsulphoxide (DMSO) and used as a stock solution[29].

Pseudomonas aeruginosa [12] = assay: MIC by microdilution (CLSI); type: cell-based; settings: read-out: Minimum inhibitory concentration (MIC)
Description: as §5

Klebsiella pneumonia [13] = assay: MIC by microdilution (CLSI); type: cell-based; settings: Klebsiella pneumoniae, read-out: Minimum inhibitory concentration (MIC)
Description: as §5

Staphylococcus aureus [14] = assay: MIC by microdilution (CLSI); type: cell-based; settings: read-out: Minimum inhibitory concentration (MIC)
Description: as §5

Aspergillus fumagitus [15] = assay: Agar well diffusion; type: cell-based; settings: read-out: Inhibition Zone
Excerpt: as §2

Bacillus subtilis [16] = assay: Lipid peroxidation (LPO) MDA-TBA assay of bacterial cell membrane; type: cell-based; settings: overnight incubation, MDA-TBA at 532 nm
Description: (§6) Lipid peroxidation of bacterial cell membranes was a remarkable tool indicating the oxidative stress that was caused by the tested compounds. The lipid peroxidation colorimetric assay kit was used for this purpose. […]. […] Briefly, each tested compound was incubated with each bacterial pathogen overnight under shaking and then 1 mL of the treated bacterial cell was vigorously mixed with 300 μL MDA lysis buffer at 4 °C. The addition of 3 μL of Butylated hydroxytoluene (BHT) was then performed to avoid the pigment interference that resulted from the decomposition of lipophilic peroxides. Thereafter, samples were separated by centrifugation at 8000 rpm for 10 min, and the insoluble substances were discarded. Finally, 200 μL of the clear supernatant was mixed with 600 μL of the TBA solution at 95 °C for 60 min. Samples were then cooled at room temperature, and the developed pink color was determined at 532 nm using a Spectrophotometer (Agilent Cary 100, Germany). The positive control was also prepared using 5% of Hydrogen peroxide and treated each bacterial pathogen for 20 min. The noticed increase in the lipid peroxidation efficiency was expressed from the following equation: Lipidperoxidationefficiency%=NC-NS/NC×100. where NC is the absorbance of lipid peroxidation in the untreated bacterial cells and NS is the absorbance of lipid peroxidation in the treated bacterial cells.

Pseudomonas aeruginosa [17] = assay: as above; type: cell-based; settings: overnight incubation, MDA-TBA at 532 nm
Description: as §6

Klebsiella pneumonia [18] = assay: as above; type: cell-based; settings: overnight incubation, MDA-TBA at 532 nm
Description: as §6

Staphylococcus aureus [19] = assay: as above; type: cell-based; settings: overnight incubation, MDA-TBA at 532 nm
Description: as §6

[20] = test system: BJ-1 (human normal skin fibroblast cells); assay: MTT cytotoxicity assay; type: cell-based; settings: BJ-1 normal cells, 100 µM
Description: as §1

HCT-116 cells [21] = assay: Cell cycle analysis by flow cytometry (PI staining); type: cell-based, human
Description: The ethanol-suspended cells were centrifuged and re-suspended in 5 mL 1 × DPBS, then centrifuged again before being re-suspended in 1 mL of PI staining solution. The stained cells were kept in the dark at room temperature for 30 min before being transferred to the CytoFLEX Flow Cytometer to measure their fluorescence. […] BECKMAN COULTER Inc., Cairo, Egypt, Cat. No. 4238055-CB was used in this assay.

[22] = Homo sapiens, MCF7, 48 h, MCF-7, 48 h
[23] = Homo sapiens, MCF7, MCF-7, single dose 100 µM, 48 h, read-out: Cytotoxicity (%)
[24] = Aspergillus fumagitus, 20 µg/mL

SMILES	IC50 ([1]; 48 h)	zone of inhibition at 20 µg/mL (Candida albicans [2]; 20 µg/mL)	early apoptosis (HCT-116 cells [3])	late apoptosis (HCT-116 cells [3])	early apoptosis (MCF-7 cells)	late apoptosis (MCF-7 cells)	zone of inhibition at 20 µg/mL (Bacillus subtilis [4]; 20 µg/mL)	zone of inhibition at 20 µg/mL (Pseudomonas aeruginosa [5]; 20 µg/mL)	zone of inhibition at 20 µg/mL (Klebsiella pneumonia [6]; Klebsiella pneumonia, 20 µg/mL)	zone of inhibition at 20 µg/mL (Staphylococcus aureus [7])	IC50 [8, 22]	cytotoxicity at 100 µM [8, 23]	MIC (Candida albicans [9])	MIC (Aspergillus fumagitus [10])	MIC (Bacillus subtilis [11])	MIC (Pseudomonas aeruginosa [12])	MIC (Klebsiella pneumonia [13])	MIC (Staphylococcus aureus [14])	zone of inhibition at 20 µg/mL (Aspergillus fumagitus [15]; [24])	melting point	further results
Cc1ccc(S(=O)(=O)NC(=O)NC23CC4CC(CC(C4)C2)C3)cc1 [Compound 13, N-(adamantan-1-ylcarbamoyl)-4-methylbenzenesulfonamide]	43.5 ± 0.15 µM	3 mm	45.07%	0.42%	2.24%	0.58%	6 mm	3 mm	2 mm	2 mm	62.4 ± 0.128 µM	≥ 51%									cytotoxicity at 100 µM ([1]; HCT-116, single dose 100 µM, 48 h, read-out: Cytotoxicity (%)): ≥ 65%; cytotoxicity at 48 h, 100 µM (MTT cytotoxicity assay; BJ-1 normal skin fibroblast cells): 2.7%
Cc1ccc(NC(=O)N2CCOCC2)cc1 [Compound 15, N-(p-tolyl)morpholine-4-carboxamide]		4 mm					2 mm	4 mm	4 mm	2 mm			10 µg/mL (≈ 45.4 µM)	20 µg/mL (≈ 90.8 µM)	40 µg/mL (≈ 182 µM)	20 µg/mL (≈ 90.8 µM)	20 µg/mL (≈ 90.8 µM)	40 µg/mL (≈ 182 µM)	2 mm	165 to 167 °C	Lipid peroxidation (Bacillus subtilis [16]): 157.1%; Lipid peroxidation (Pseudomonas aeruginosa [17]): 107%; Lipid peroxidation (Klebsiella pneumonia [18]): 108.6%; Lipid peroxidation (Staphylococcus aureus [19]): 128.9%
CN1CCN(C(=O)Nc2ccccc2)CC1 [Compound 21, 4-Methyl-N-phenylpiperazine-1-carboxamide]	38.5 ± 0.17 µM		0.99%	0.44%							91.6 ± 0.112 µM									128 to 130 °C	cytotoxicity at 100 µM ([1]; HCT-116, 48 h): ≥ 65%; zone of inhibition at 20 µg/mL (Candida albicans [2]): 3 mm; zone of inhibition at 20 µg/mL (Aspergillus fumagitus [15]; Aspergillus): 2 mm; cytotoxicity at 48 h, 100 µM (MTT cytotoxicity assay): 38.9%; Cytotoxicity (%) [20]: 47.2%; zone of inhibition at 20 µg/mL (Bacillus subtilis [4]): 4 mm; zone of inhibition at 20 µg/mL (Pseudomonas aeruginosa [5]): 2 mm; zone of inhibition at 20 µg/mL (Klebsiella pneumonia [6]): 3 mm; cell cycle arrest (phase) (HCT-116 cells [21]): weaker than those of compound 13; cytotoxicity at 100 µM ([8]; Homo sapiens, MCF7, 48 h): ≥ 51%
O=C(Nc1ccccc1)N1CCCCC1 [Compound 22, N-phenylpiperidine-1-carboxamide]		5 mm			7.93%	1.1%	5 mm	3 mm	3 mm	2 mm	91.6 ± 0.112 µM	≥ 51%	5 µg/mL (≈ 24.5 µM)	10 µg/mL (≈ 49 µM)	10 µg/mL (≈ 49 µM)	80 µg/mL (≈ 392 µM)	40 µg/mL (≈ 196 µM)	40 µg/mL (≈ 196 µM)	4 mm	190 to 192 °C	Lipid peroxidation (Bacillus subtilis [16]): 264.8%; Lipid peroxidation (Pseudomonas aeruginosa [17]): 170%; Lipid peroxidation (Klebsiella pneumonia [18]): 191.3%; Lipid peroxidation (Staphylococcus aureus [19]): 273.4%; IC50 ([8]; MCF-7, 48 h): 57.9 ± 0.122 µM
